According to ChEMBL document CHEMBL5120862, “Novel non-covalent LSD1 inhibitors endowed with anticancer effects in leukemia and solid tumor cellular models” (Eur J Med Chem, 2022):
Calls of active or inactive are those of the source. No cut-off for these calls is given here.

Columns and labels:
[1] = target: T1, Histone-lysine N-methyltransferase EHMT2 (Homo sapiens, UniProt Q96KQ7); assay: Inhibition of G9a (unknown origin) assessed as reduction in substrate methylation using histone H3 and SAM as substrate measured after 15 to 60 mins by microfluidic capillary electrophoresis analysis
T1 sequence (Q96KQ7 whole entry): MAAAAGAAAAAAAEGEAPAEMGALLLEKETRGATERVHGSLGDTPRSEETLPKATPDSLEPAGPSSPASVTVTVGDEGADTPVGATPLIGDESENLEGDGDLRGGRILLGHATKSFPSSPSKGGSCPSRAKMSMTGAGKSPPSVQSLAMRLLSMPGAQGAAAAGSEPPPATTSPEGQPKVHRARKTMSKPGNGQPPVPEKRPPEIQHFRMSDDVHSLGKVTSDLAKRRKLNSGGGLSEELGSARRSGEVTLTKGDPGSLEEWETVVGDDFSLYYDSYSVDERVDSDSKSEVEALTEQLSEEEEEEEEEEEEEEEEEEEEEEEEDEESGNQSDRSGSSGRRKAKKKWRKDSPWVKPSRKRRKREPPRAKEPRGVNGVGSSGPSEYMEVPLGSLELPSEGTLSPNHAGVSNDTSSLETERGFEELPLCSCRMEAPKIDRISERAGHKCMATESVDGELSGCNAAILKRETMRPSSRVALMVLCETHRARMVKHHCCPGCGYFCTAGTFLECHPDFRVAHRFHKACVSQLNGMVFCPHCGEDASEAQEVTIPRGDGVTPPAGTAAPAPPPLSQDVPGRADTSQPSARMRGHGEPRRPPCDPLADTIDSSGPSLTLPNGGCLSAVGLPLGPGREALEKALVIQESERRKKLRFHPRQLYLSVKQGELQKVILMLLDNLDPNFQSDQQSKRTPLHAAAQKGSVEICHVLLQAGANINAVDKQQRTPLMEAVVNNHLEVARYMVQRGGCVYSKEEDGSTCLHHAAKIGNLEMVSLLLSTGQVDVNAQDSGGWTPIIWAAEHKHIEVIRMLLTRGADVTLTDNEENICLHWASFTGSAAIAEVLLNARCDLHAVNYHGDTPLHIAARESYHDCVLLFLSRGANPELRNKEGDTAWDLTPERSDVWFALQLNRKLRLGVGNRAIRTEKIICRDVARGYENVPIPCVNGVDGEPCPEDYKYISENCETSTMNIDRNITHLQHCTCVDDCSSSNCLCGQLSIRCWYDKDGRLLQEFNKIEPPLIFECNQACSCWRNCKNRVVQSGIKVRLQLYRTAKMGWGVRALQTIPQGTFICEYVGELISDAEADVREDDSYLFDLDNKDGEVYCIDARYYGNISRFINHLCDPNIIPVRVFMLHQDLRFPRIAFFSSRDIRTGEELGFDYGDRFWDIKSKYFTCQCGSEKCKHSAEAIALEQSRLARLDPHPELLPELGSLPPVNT

[2] = target: T2, MAO-A (amine oxidase [flavin-containing] A) (Homo sapiens, UniProt P21397); assay: Inhibition of human MAO-A using p-tyramine as substrate at 100 uM by fluorimetric analysis relative to control; conditions: human MAO-A enzyme, probe p-tyramine
T2 sequence (P21397 whole entry): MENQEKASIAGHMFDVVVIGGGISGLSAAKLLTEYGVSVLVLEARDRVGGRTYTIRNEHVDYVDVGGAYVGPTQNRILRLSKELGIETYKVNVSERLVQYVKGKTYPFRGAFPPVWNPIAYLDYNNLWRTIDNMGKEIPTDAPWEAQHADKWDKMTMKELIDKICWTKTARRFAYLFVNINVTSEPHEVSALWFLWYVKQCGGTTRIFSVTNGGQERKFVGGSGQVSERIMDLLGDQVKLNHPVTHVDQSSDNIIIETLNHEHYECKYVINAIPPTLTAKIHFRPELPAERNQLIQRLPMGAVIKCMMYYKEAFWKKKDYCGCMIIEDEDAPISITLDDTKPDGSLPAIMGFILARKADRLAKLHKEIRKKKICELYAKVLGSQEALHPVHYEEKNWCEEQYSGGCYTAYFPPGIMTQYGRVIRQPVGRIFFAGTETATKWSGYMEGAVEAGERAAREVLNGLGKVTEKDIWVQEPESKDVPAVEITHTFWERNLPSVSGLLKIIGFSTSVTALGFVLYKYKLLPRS

[3] = target: T3, MAO-B (amine oxidase [flavin-containing] B) (Homo sapiens, UniProt P27338); assay: Inhibition of human MAO-B using p-tyramine as substrate at 100 uM by fluorimetric analysis relative to control; conditions: human MAO-B enzyme, probe p-tyramine
T3 sequence (P27338 whole entry): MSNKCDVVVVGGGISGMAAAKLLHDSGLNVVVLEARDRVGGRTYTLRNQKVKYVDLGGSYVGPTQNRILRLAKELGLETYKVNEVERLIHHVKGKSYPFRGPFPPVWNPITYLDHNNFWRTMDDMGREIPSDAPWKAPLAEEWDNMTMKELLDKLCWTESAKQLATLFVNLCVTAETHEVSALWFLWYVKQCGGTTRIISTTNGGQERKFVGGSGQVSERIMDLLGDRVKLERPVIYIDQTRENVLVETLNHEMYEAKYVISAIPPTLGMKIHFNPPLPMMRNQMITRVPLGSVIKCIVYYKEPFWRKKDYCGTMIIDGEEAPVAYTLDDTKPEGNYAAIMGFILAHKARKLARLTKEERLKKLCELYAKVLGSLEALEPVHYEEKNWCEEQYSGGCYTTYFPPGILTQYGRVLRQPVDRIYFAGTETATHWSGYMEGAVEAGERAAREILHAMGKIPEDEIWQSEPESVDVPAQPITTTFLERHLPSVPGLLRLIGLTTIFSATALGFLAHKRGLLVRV

THP-1 = assay: Antiproliferative activity against human THP-1 cells assessed as inhibition of cell growth incubated for 72 hrs by CellTiter-Glo luminescent cell viability assay; format: functional, cell-based; conditions: THP-1, 72 h
[4] = target: Lysine-specific histone demethylase 1A (Homo sapiens) (UniProt O60341); assay: Inhibition of LSD1 in human MV4-11 cells assessed as increase in H3K4me2 level at 0.2 to […] incubated for 24 hrs by Western blot analysis; format: cell-based; conditions: dose 0.2-2.5 µM
[5] = target: Lysine-specific histone demethylase 1A (Homo sapiens) (UniProt O60341); assay: Inhibition of LSD1 in human MV4-11 cells assessed as increase in CD86 expression level incubated for 24 hrs by qRT-PCR analysis; format: cell-based; conditions: dose 0.2-1 µM
[6] = Cytotoxicity against HMEC cells assessed as residual cell viability at 0.5 uM incubated for 72 hrs by MTT assay relative to control; format: toxicity, cell-based; conditions: human, read-out: Activity
RD = assay: Antiproliferative activity against human RD cells assessed as inhibition of cell growth incubated for 24 hrs; format: functional, cell-based
SJRH30 [7] = assay: Antiproliferative activity against human Rh30 cells assessed as inhibition of cell growth incubated for 24 hrs; format: functional, cell-based; conditions: SJRH30, 24 h
SJRH30 [8] = assay: Antiproliferative activity against human Rh30 cells assessed as inhibition of cell growth incubated for 72 hrs; format: functional, cell-based; conditions: SJRH30, 72 h
[9] = target: Lysine-specific histone demethylase 1A (Homo sapiens) (UniProt O60341); assay: Inhibition of LSD1 in human RD cells assessed as increase in H3K4me2 level at 1 uM incubated for 48 hrs by Western blot analysis; format: cell-based

SMILES: COc1cc2c(NC3CCN(Cc4ccccc4)CC3)nc(NCCCN(C)C)nc2cc1OCc1ccccc1
- Ki [1]: 39.4 µM
- inhibition at 100 µM [2]: 0.8%
- inhibition at 100 µM [3]: 0.5%
- IC50 (THP-1): 0.17 µM
- inhibition [4]: Active
- inhibition [5]: Active
- viability at 72 h, 0.5 µM [6]: 93%
- IC50 (RD): 1.23 µM
- IC50 (SJRH30 [7]): 1.24 µM
- IC50 (SJRH30 [8]): 0.96 µM
- inhibition [9]: Active
